Laboratory results: US20250099553A1, “COMPOSITION AND METHODS FOR MODULATION OF ELOVL2” (YOUHEALTH BIOTECH, LIMITED, priority 2018, published 2025)

What was measured:
human fibroblast cells = test system: human fibroblast cells
Protocol: The human RPE cells were primarily derived from healthy donors. The human fibroblast cells are purchased from ATCC (WI-38, ATCC® CCL-75) human fibroblasts were maintained in Dulbecco's Modified Eagle Medium (DMEM) supplemented with 10% fetal bovine serum and 50 U/ml penicillin-streptomycin. Human RPE cells were cultured with DMEM/F-12 (1:1) supplemented with 10% fetal bovine serum and 50 U/ml penicillin-streptomycin.
RNA was extracted by RNeasy Mini Kit (QIAGEN, 74104) and the RNase-Free DNase Set (QIAGEN, 79254) was used to ensure no DNA contamination. Reverse transcription was performed by High Capacity cDNA Reverse Transcription Kit (ABI, 4368814). SYBR-qPCR was performed by Power SYBR® Green PCR Master Mix (ABI, 4367659). All primers were designed using PrimerPremier5 and synthesized from Integrated DNA Technologies.

[1] = test system: Elovl2 knock-down human RPE cells (KE); test: Drug rescue of Elovl2 knockdown (KE) human RPE cells, AMD phenotype (immunofluorescence, qPCR); type: cell-based; settings: 5 mM nicotinamide, 48 h, FIGS. 5I-5J
Protocol: For Elovl2 knockdown, lentivector (pLL3.7-shElovl2) exogenously expressing shRNA (5′-[…]-3′) was made and transfected into 293T cells (ATCC) using Lipofectamin 3000 reagent (Thermo Fisher) to obtain lentivirus. To build the Elovl2-knockdown cell line, human RPE cells (seeded a night ahead in a concentration of 5*10^5 cells/well) in a 6-well plate were infected with the lentivirus containing Elovl2-shRNA for 24h, followed by 24 h of equilibration. Drug treatments were performed at the time of 48 h post-infection. To rescue the Elovl2 knockdown cells, 10 μg/ml curcumin (Sigma, C7727) or 5 mM nicotinamide (Sigma, N0636) or DMSO were added in the cell culture medium and the cells were treated for 48 h.
Murine tissue sample were freshly collected upon perfusion, followed by overnight PFA fixation and sucrose dehydration. Human fibroblast cells, human RPE cells and murine primary cells were fixed with 4% PFA for 1 h. To perform immunofluorescence, the slide was rinsed in PBS for 5 minutes, blocked in blocking buffer (PBS with 1% BSA, 0.1% Tween-20) for 20 minutes at room temperature (RT), and incubated with primary antibody in blocking buffer for 1 hour at RT. After 3 washes with 0.1% Tween-20 in PBS, the slide was incubated with secondary antibody in blocking buffer for 1 hour at RT. The slides were mounted with DAPI-Vectashield solution (Vector laboratories). Images were taken with a confocal microscope (LSM 780). To estimate the mitochondrial conditions, human RPE cells and murine primary cells were incubated with either MitoSOX (5 uM) according to manufacturer's instructions.

Row | SMILES | methylation on biological aging marker Elovl2 (human fibroblast cells; H2O2 treated human fibroblast cells, MeDip-qPCR) | senescent markers (human fibroblast cells; H2O2 treated human fibroblast cells, FIGS. 1D-1E, 6E-6F) | expression of Elovl2 (human fibroblast cells; after H2O2 treatment, groups with DNMT1, DNMT3A and DNMT3B knockdown but not CHD4 knockdown, FIG. 6H) | AMD markers [1] | expression of cellular senescence genes [1] | mitochondrial dysfunction [1]
1 | OO [H2O2, hydrogen peroxide] | Increased methylation | increase of senescent markers | decreased | – | – | –
2 | NC(=O)c1cccnc1 [nicotinamide] | – | – | – | reduction of AMD markers | reversed the abnormal expression of cellular senescence genes | reduced mitochondrial dysfunction
